Results on six substances are retold here after US20170232083A1, “METHODS OF DIAGNOSIS AND TREATMENT OF CELIAC DISEASE IN CHILDREN” (priority 2014, published 2017).

In the test the test system is PBMC (polyclonal gluten-specific T cells) of paediatric and adult CD patients. Description: IFN-γ ELISpot of PBMC after 3 day oral wheat challenge (SFU, % of maximal peptide response, dominance scores, EC50; Examples 5-6). It counts as cell-based, human. Conditions: for Cross-reactive T cell response: following wheat challenge; for IFN-γ ELISpot response: after oral wheat challenge.

Setting [1] is: subject I (3-5yrs/6-10yrs part).
Where [2] appears, read: subject J (3-5yrs/6-10yrs part).
Setting [3] is: subject K (3-5yrs/6-10yrs part).
The mark [4] stands for this setting: subject V (3-5yrs/6-10yrs part).
Where [5] appears, read: subject W (3-5yrs/6-10yrs part).
Where [6] appears, read: subject Y (3-5yrs/6-10yrs part).
Setting [7] is: subject five (3-5yrs/6-10yrs part).
The mark [8] stands for this setting: subject seven (3-5yrs/6-10yrs part).
Setting [9] is: subject six (3-5yrs/6-10yrs part).
Where [10] appears, read: subject ten (3-5yrs/6-10yrs part).
[11] abbreviates: subject two (3-5yrs/6-10yrs part).
[12] abbreviates: patient A, 11-17 yrs, cut-off 10 SFU.
Where [13] appears, read: patient E, H, 11-17 yrs, cut-off 10 SFU.
[14] abbreviates: patient F, 11-17 yrs, cut-off 10 SFU.
Setting [15] is: patient G, 11-17 yrs, cut-off 10 SFU.
Where [16] appears, read: patient H (HLA-DQ2.5 homozygote), 3-5yrs, cut-off 10 SFU.
Where [17] appears, read: patient H, 11-17 yrs, cut-off 10 SFU.
Setting [18] is: patient ID not given, 11-17 yrs, cut-off 10 SFU.
[19] abbreviates: patient N, 3-5yrs, cut-off 10 SFU.
Where [20] appears, read: patient P, 11-17 yrs, cut-off 21.6 SFU.
Where [21] appears, read: patient Q, 11-17 yrs, cut-off 10 SFU.
[22] abbreviates: patient U, H, 11-17 yrs, cut-off 10 SFU.
Where [23] appears, read: patient V, 6-10 yrs, cut-off 10 SFU.
[24] abbreviates: patient Y, 6-10 yrs, cut-off 10 SFU.
Setting [25] is: patient eleven, 6-10 yrs, cut-off 10 SFU.
Setting [26] is: patient four, 3-5yrs, cut-off 10 SFU.
Setting [27] is: patient seven, 6-10 yrs, cut-off 10.5 SFU.
Where [28] appears, read: patient ten, 3-5yrs, cut-off 10 SFU.
Setting [29] is: patient three, 6-10 yrs, cut-off 10.5 SFU.
[30] abbreviates: patient twelve, 11-17 yrs, cut-off 10 SFU.
[31] abbreviates: patient two, 3-5yrs, cut-off 10 SFU.

Regarding QPFPQPEQPTPIQ, the “Cross-reactive T cell response” value runs as follows: (subject A, 11-17yrs) 6 SFU; (subject D, 11-17yrs) 11 SFU; (subject E, 11-17yrs) 63 SFU; (subject F, 11-17yrs) 73 SFU; (subject G, 11-17yrs) 1 SFU; (subject H) 1 SFU. The “Cross-reactive T cell response” value under setting [1] was determined as 0 SFU; the “Cross-reactive T cell response” value under setting [2] is 86 SFU; the “Cross-reactive T cell response” value under setting [3] is recorded as 7 SFU; the “Cross-reactive T cell response” value (subject P, 11-17yrs) came out at 23 SFU; the “Cross-reactive T cell response” value (subject Q, 11-17yrs) was 39 SFU; the “Cross-reactive T cell response” value (subject T, 11-17yrs) was 61 SFU. The “Cross-reactive T cell response” value is, setting by setting: (subject U, 11-17yrs) 21 SFU; under setting [4], 5 SFU; under setting [5], 0 SFU; under setting [6], 4 SFU; under setting [7], 38 SFU; (subject nine, 11-17yrs) 2 SFU. Moreover, the “Cross-reactive T cell response” value by setting is: under setting [8], 6 SFU; under setting [9], 12 SFU; under setting [10], 8 SFU; under setting [11], 20 SFU. Besides, the “Significant response as a percentage of maximal peptide SFU” value (shortened to “Significant response as a percentage”) (subject D, 11-17yrs) is given as “′′ (21-40% = ′′)”; the “Significant response as a percentage” value (subject E, 11-17yrs) is “′′ (21-40% = ′′)”; the “Significant response as a percentage” value (subject J) was “′′′ (41-70% = ′′′)”; the “Significant response as a percentage” value (subject P, 11-17yrs) is reported as “′′ (21-40% = ′′)”; the “Significant response as a percentage” value (subject Q, 11-17yrs) is given as “′′′ (41-70% = ′′′)”; the “Significant response as a percentage” value (subject T, 11-17yrs) is on record as “′′′ (41-70% = ′′′)”. Moreover, the “Significant response as a percentage” value runs as follows: (subject U, 11-17yrs) “′′ (21-40% = ′′)”; (subject five) “+ (>70% = +)”; (subject six) “+ (>70% = +)”; (subject two) “′′ (21-40% = ′′)”.
On to QPFPQPEQQLPLQ, for which the “Cross-reactive T cell response” value is 1 SFU (subject A, 11-17yrs); 5 SFU (subject D, 11-17yrs); 30 SFU (subject E, 11-17yrs); 5 SFU (subject F, 11-17yrs); 1 SFU (subject G, 11-17yrs); 1 SFU (subject H). The “Cross-reactive T cell response” value reads like this: under setting [1], 3 SFU; under setting [2], 79 SFU; under setting [3], 9 SFU; (subject P, 11-17yrs) 11 SFU; (subject Q, 11-17yrs) 11 SFU; (subject T, 11-17yrs) 27 SFU. The “Cross-reactive T cell response” value (subject U, 11-17yrs) is given as 4 SFU; the “Cross-reactive T cell response” value under setting [4] stood at 3 SFU; the “Cross-reactive T cell response” value under setting [5] was found to be 3 SFU; the “Cross-reactive T cell response” value under setting [6] is recorded as 5 SFU; the “Cross-reactive T cell response” value under setting [7] is given as 11 SFU; the “Cross-reactive T cell response” value (subject nine, 11-17yrs) came to 3 SFU. Moreover, the “Cross-reactive T cell response” value stood at 11 SFU under setting [8], 11 SFU under setting [9], 6 SFU under setting [10] and 2 SFU under setting [11]. For the same substance, the “Significant response as a percentage” value reads like this: (subject E, 11-17yrs) “′ (11-20% = ′)”; (subject J) “′′′ (41-70% = ′′′)”; (subject Q, 11-17yrs) “′ (11-20% = ′)”; (subject T, 11-17yrs) “′′ (21-40% = ′′)”; (subject five) “′′ (21-40% = ′′)”; (subject six) “+ (>70% = +)”.
For QPFPQPQQPFSQQ, the “IFN-γ ELISpot response” value reads like this: under setting [12], 9 SFU; under setting [13], 16 SFU; under setting [14], 12 SFU; under setting [15], 1 SFU; under setting [16], 13 SFU; under setting [17], 2 SFU. Besides, the “IFN-γ ELISpot response” value stood at 30 SFU under setting [18]; 3 SFU under setting [19]; 10 SFU under setting [20]; 28 SFU under setting [21]; 22 SFU under setting [22]; 5 SFU under setting [23]. Also, the “IFN-γ ELISpot response” value by setting is: under setting [24], 6 SFU; under setting [25], 1 SFU; under setting [26], 12 SFU; under setting [27], 6 SFU; under setting [28], 3 SFU; under setting [29], 13 SFU. For the same substance, the “IFN-γ ELISpot response” value runs as follows: under setting [30], 9 SFU; under setting [31], 9 SFU. Moreover, the “Significant response as percentage of maximal peptide SFU” value (“Significant response as percentage” below) is “(6-10% = ^)” (patient E, max peptide 224 SFU); “(6-10% = ^)” (patient F, max peptide 178 SFU); “′′ (21-40% = ′′)” (patient ID not given, max peptide 95 SFU); “+ (>70% = +)” (patient II, max peptide 15 SFU); “(6-10% = ^)” (patient J, max peptide 196 SFU); “′′ (21-40% = ′′)” (patient K, max peptide 53 SFU). Also, the “Significant response as percentage” value reads like this: (patient M, max peptide 48 SFU) “′′ (21-40% = ′′)”; (patient Q, max peptide 97 SFU) “′′ (21-40% = ′′)”; (patient U, max peptide 81 SFU) “′′ (21-40% = ′′)”; (patient five, max peptide 48 SFU) “′′ (21-40% = ′′)”; (patient four, max peptide 44 SFU) “′′ (21-40% = ′′)”.
On to “QPPFSEEQEQPLPQ [gluten peptide described by Vader et al, reference compound]”, for which the “positive polyclonal T cell response after wheat challenge, proportion” value (Example 5, 2/30) is recorded as 6.7%. Also, where the note is “Example 6, 2/30”, the “polyclonal T cell responses following wheat challenge, volunteers” value amounted to 6.7%.
TIPEQPEQPFPLQ: the “IFN-γ ELISpot response” value reads like this: under setting [12], 0 SFU; under setting [13], 224 SFU; under setting [14], 14 SFU; under setting [15], 2 SFU; under setting [16], 2 SFU; under setting [17], 4 SFU. The “IFN-γ ELISpot response” value is, setting by setting: under setting [18], 6 SFU; under setting [19], 3 SFU; under setting [20], 7 SFU; under setting [21], 8 SFU; under setting [22], 5 SFU; under setting [23], 0 SFU. Moreover, the “IFN-γ ELISpot response” value under setting [24] is recorded as 2 SFU; the “IFN-γ ELISpot response” value under setting [25] came to 3 SFU; the “IFN-γ ELISpot response” value under setting [26] was determined as 3 SFU; the “IFN-γ ELISpot response” value under setting [27] was determined as 1 SFU; the “IFN-γ ELISpot response” value under setting [28] stood at 5 SFU; the “IFN-γ ELISpot response” value under setting [29] was determined as 18 SFU. In addition, the “IFN-γ ELISpot response” value is 1 SFU under setting [30] and 11 SFU under setting [31]. Further, the “Significant response as percentage” value is, setting by setting: (patient E, max peptide 224 SFU) “+ (>70% = +)”; (patient F, max peptide 178 SFU) “(6-10% = ^)”; (patient J, max peptide 196 SFU) “(6-10% = ^)”; (patient two, max peptide 60 SFU) “′ (11-20% = ′)”.
As for W09 (PQPFLPELPYPQP) [Peptide W09], the “Dominance score 3-5yrs (n = 9)” value (CD children 3-5yrs, n = 9, following wheat challenge, mean percentage of maximal peptide response) worked out at 30.7. In addition, the “Dominance score 6-10yrs (n = 10)” value (CD children 6-10yrs, n = 10, following wheat challenge, mean percentage of maximal peptide response) worked out at 28.6. For the setting “CD children 11-18yrs, n = 11, following wheat challenge, mean percentage of maximal peptide response”, the “Dominance score 11-18yrs (n = 11)” value was 19.1. Moreover, the “Dominance score Mean all ages” value (CD children, all ages, following wheat challenge (Table 9)) amounted to 25.2.
